We go through three compounds from US6849616B1, “Methods to potentiate intravenous estramustine phosphate” (Pharmacia Italia S.p.A., priority 1998, dated 2005).

For data set [1], the system named is prostate cancer. To be noted: given orally with escalating doses of docetaxel, cited from earlier work.
Data set [2] concerns hormone refractory prostate cancer. The following applies: oral, combined with Etoposide, cited from earlier work.
Data set [3] has the same test system. The following applies: oral, combined with vinblastine, cited from earlier work.
Data set [4] shares this test system. To be noted: with Taxol, cited from earlier work.
Data set [5] has as its system advanced metastatic prostate cancer. The experiment in a line: Clinical cases: weekly high-dose intravenous estramustine phosphate.
For data set [6] the following is noted: cited from earlier work.
Data set [7] concerns tubulin. To be noted: in vitro (Dahllof 1993); cited from earlier work.
In data set [8] the test system is estramustine binding protein (EMBP). To be noted: cited from earlier work.
Data set [9] has as its system tumor cell division. The following applies: tissue culture (Hartley-Asp, 1984); cited from earlier work.
For data set [10] the following is noted: Gunnarsson, 1981, 1984; cited from earlier work.
Data set [11] can be described thus: Pharmacokinetics after a single high intravenous dose of estramustine phosphate in patients. To be noted: after a single high intravenous dose of estramustine phosphate at 1000 mg/m^2; FIG. 2.
The conditions of data set [12]: patients, single intravenous dose of 300 mg; previous data; cited from earlier work.
The mark [13] stands for this setting: 1000 mg/m^2 i.v. central line, 30 minute infusion, three patients.
[14] abbreviates: 1500 mg/m^2 i.v. central line, 30 minutes or 1 hour infusion, three patients.
Where [15] appears, read: 2000 mg/m^2 i.v. central line, 60 minute infusion, with anti-thrombotic agent, three patients.
The mark [16] stands for this setting: 2500 mg/m^2 i.v. central line, 90 minute infusion, two patients.
[17] abbreviates: 245 patients, 300-600 mg/day i.v. for 21 days then once or twice weekly for 2 months (Andersson et al).

As for `C[C@]12CC[C@@H]3c4ccc(OC(=O)N(CCCl)CCCl)cc4CC[C@H]3[C@@H]1CC[C@@H]2OP(=O)(O)O` [estramustine phosphate], the “overall prostate specific antigen response rate” value in data set [1] is 62%. Further, in [1] (patients with bidimensionally measurable disease (3 patients)), the “partial response in lymph nodes” value is given as 43%. Besides, the “complete responses (CR)” value in data set [2] (20 patients with soft tissue disease (3 patients)) is reported as 15%. In data set [2] (20 patients with soft tissue disease (6 patients)), the “partial responses (PR)” value was 30%. The “patients with bone metastases improved” value in data set [2] (32 patients with bone metastases (8 patients)) is 25%. The “patients with bone metastases stable” value in data set [2] (32 patients with bone metastases (12 patients)) is 38%. Besides, in data set [2] (overall, 13 men), the “men with a 75% decrease in prostate specific antigen” value is on record as 25%. Further, in data set [2] (overall, 28 men), the “men with a 50% decrease in prostate specific antigen” value is 54%. In data set [3] (4/37), the “incidence of significant cardiovascular toxicity” value is reported as 10.5%. For the same compound, the “decrease in prostate specific antigen” value in data set [3] (among 88 patients) was 50-75%. Also, in data set [3], the most frequent toxicity entry is on record as “mild to moderate nausea”. Also, the “transient hepatic enzyme elevation of grade 1-3” value in [4] (6 patients) was 35.2%. Besides, the edema in data set [4] (8 patients) was 47%. Further, the “patients obtaining a PR” value in [4] (of six patients with measurable disease, PR of 2+, 6, and 8 months) is 3. Further, in data set [4] (seventeen patients), the “Grade 3-4 granulocytopenia and mucositis” value is given as 2 patients; the “median duration of response” value is listed as 7 months; the “nausea grade 1-2” value is listed as 70.5%; the “patients with PSA decreased by ≧50%” value is given as 58.8%. In addition, in data set [5] (setting [13]), the PSA response entry is given as “several patients demonstrating PSA response” and the tolerability of infusions entry was “well tolerated”. For the same compound, in data set [5] (setting [14]), the tolerability of infusions entry was “well tolerated” and the tumor response entry was “one patient demonstrating a response in bulky tumor adenopathy”. Besides, in data set [5] (setting [15]), the PSA response entry is recorded as “evidence of PSA response” and the tolerability of infusions entry is reported as “well tolerated without serious toxicity”. Also, in data set [5] (setting [16]), the “prostate specific antigen (PSA) response” value is “both patients demonstrated a response (reduction)” and the tolerability of infusions entry was “well tolerated without serious toxicity”. Further, the “toxicity at 450 mg/day intravenous” value in data set [6] (450 mg/day i.v. (Nagel and Kölln 1977)) is recorded as “severe gastrointestinal problems”. In addition, the “patients with severe liver problems” value in [6] (900 mg/day i.v. for 7-10 days followed by oral therapy, 11 of 18 patients (Maier 1990)) is reported as 61%. For the same compound, in data set [6] (setting [17]), the “patients exhibiting gastrointestinal problems” value was 17%, the “patients exhibiting liver disturbances” value was 9% and the patients exhibiting thrombophlebitis was 20%.

Take `C[C@]12CC[C@@H]3c4ccc(OC(=O)N(CCCl)CCCl)cc4CC[C@H]3[C@@H]1CC[C@@H]2O` [estramustine]: the “effect on assembly of microtubules composed of only tubulin” value in data set [7] is recorded as “inhibited the assembly of microtubules”. In [8], the “binding affinity to EMBP-like protein” value is listed as “very high affinity”. The anti-mitotic effect result in [9] was “dose-dependent blocking of tumor cell division in the metaphase”. The “yield of estradiol and estrone, respectively, by cleavage of the carbamic ester” value in data set [10] is listed as “approximately 15%”.

As to `C[C@]12CC[C@@H]3c4ccc(OC(=O)N(CCCl)CCCl)cc4CC[C@H]3[C@@H]1CCC2=O` [estromustine], in data set [11], the “half life of estromustine” value is recorded as “approximately 100 hours”. Also, the “binding affinity to EMBP-like protein” value in data set [8] is given as “very high affinity”. Also, the “yield of estradiol and estrone, respectively, by cleavage of the carbamic ester” value in data set [10] is recorded as “approximately 15%”. The “elimination half lives of estromustine” value in data set [12] is 10 to 20 h.
